# Source: patent US20240374609A1, “NITROSAMINE IMPURITY, VARENICLINE PHARMACEUTICAL COMPOSITION CAPABLE OF REDUCING GENERATION OF NITROSAMINE IMPURITIES AND PREPARATION AND USE THEREOF” (VIWIT PHARMACEUTICALCO., LTD., priority 2021, published 2024)
# What was measured:
# [1] = test system: Salmonella Typhimurium TA102; experiment: Ames test, plate incorporation method, TA102; format: cell-based
# Protocol: Salmonella Typhimurium TA97a, TA98, TA100, TA102, and TA1535 from MOLT OX, USA, were purchased from Shanghai Bioplus Biotech. Co., Ltd. The test was carried out using Salmonella typhimurium strains that were identified as meeting the requirements.
# (§1) Rat liver S9 from Shanghai Bioplus Biotech. Co., Ltd.
# (§2) The experiments were performed using the plate incorporation method.
# (§3) Dose selection: The experiments were performed using 5 mg, 2.5 mg, 1.25 mg, 0.625 mg, 0.3125 mg, and 0.15625 mg per dish.
# Test substance preparation: nitrosamine impurity compound P08 was prepared to a solution of 50 mg/ml with dimethyl-sulfoxide, and diluted with dimethyl-sulfoxide to give the solutions of 25 mg/ml, 12.5 mg/ml, 6.25 mg/ml, 3.125 mg/ml, and 1.5625 mg/ml successively.
# (§4) 0.1 ml of frozen bacterial solutions TA97a, TA98, TA100, TA102 and TA1535 were inoculated into the 10 ml nutrient broth mediums respectively, and cultured at 37° C. (100/min) for 10 h with shaking (100 times/min). 2.0 ml of top layer medium containing 0.5 mmol/L histidine −0.5 mmol/L biotin was dispensed into test tubes, sterilized by 0.103 MPa for 20 min, and kept in a water bath at 50° C. Then, 0.1 ml of the test substance solution, 0.5 ml of the S9 mixture (when metabolic activation was required) and 0.1 ml of the bacterial solution were added into each tube successively, mixed sufficiently, and poured into the bottom layer agar plates quickly. Then, the plates were turned to distribute even. After being placed horizontally for condensation and solidification, the plates were inverted and incubated in an incubator at 37° C. for 48 h, and the number of reverse mutation colonies per dish was counted. Three parallel plates of each dose were made, containing the spontaneous reverse mutation group, the solvent control group and the positive control group.
# (§5) The data were expressed as means±standards deviation (x±s), and SPSS 19.0 was used for calculation of data analysis.
# (§6) If the test substance tested by the above test strain is negative both with and without S9, then the test substance is determined to be mutagenic negative.
# [2] = test system: Salmonella Typhimurium TA100; experiment: Ames test, plate incorporation method, TA100; format: cell-based
# Protocol: Salmonella Typhimurium TA97a, TA98, TA100, TA102, and TA1535 from MOLT OX, USA, were purchased from Shanghai Bioplus Biotech.
# as §1, §2, §3, §4, §5, §6
compound,measurement,setting,value
O=NN1CC2CC(C1)c1cc3nccnc3cc12 [P08],number of reverse mutation colonies per dish (x ± s),"[1]; TA102, +S9, 156.25 μg/dish",249 ± 13
same,number of reverse mutation colonies per dish (x ± s),"[1]; TA102, +S9, 312.5 μg/dish",253 ± 24
same,number of reverse mutation colonies per dish (x ± s),"[1]; TA102, +S9, 625 μg/dish",296 ± 21
same,number of reverse mutation colonies per dish (x ± s),"[1]; TA102, +S9, 1250 μg/dish",272 ± 17
same,number of reverse mutation colonies per dish (x ± s),"[1]; TA102, +S9, 2500 μg/dish",283 ± 11
same,number of reverse mutation colonies per dish (x ± s),"[1]; TA102, +S9, 5000 μg/dish",320 ± 15
same,number of reverse mutation colonies per dish (x ± s),"[1]; TA102, −S9, 156.25 μg/dish",208 ± 13
same,number of reverse mutation colonies per dish (x ± s),"[1]; TA102, −S9, 312.5 μg/dish",237 ± 6
same,number of reverse mutation colonies per dish (x ± s),"[1]; TA102, −S9, 625 μg/dish",236 ± 20
same,number of reverse mutation colonies per dish (x ± s),"[1]; TA102, −S9, 1250 μg/dish",245 ± 4
same,number of reverse mutation colonies per dish (x ± s),"[1]; TA102, −S9, 2500 μg/dish",219 ± 11
same,number of reverse mutation colonies per dish (x ± s),"[1]; TA102, −S9, 5000 μg/dish",211 ± 8
same,number of reverse mutation colonies per dish (x ± s),"[2]; TA100, +S9, 156.25 μg/dish",225 ± 9
same,number of reverse mutation colonies per dish (x ± s),"[2]; TA100, +S9, 312.5 μg/dish",234 ± 6
same,number of reverse mutation colonies per dish (x ± s),"[2]; TA100, +S9, 625 μg/dish",271 ± 11
same,number of reverse mutation colonies per dish (x ± s),"[2]; TA100, +S9, 1250 μg/dish",287 ± 13
same,number of reverse mutation colonies per dish (x ± s),"[2]; TA100, +S9, 2500 μg/dish",364 ± 19
same,number of reverse mutation colonies per dish (x ± s),"[2]; TA100, +S9, 5000 μg/dish",378 ± 18
same,number of reverse mutation colonies per dish (x ± s),"[2]; TA100, −S9, 156.25 μg/dish",218 ± 20
same,number of reverse mutation colonies per dish (x ± s),"[2]; TA100, −S9, 312.5 μg/dish",234 ± 31
same,number of reverse mutation colonies per dish (x ± s),"[2]; TA100, −S9, 625 μg/dish",224 ± 3
same,number of reverse mutation colonies per dish (x ± s),"[2]; TA100, −S9, 1250 μg/dish",220 ± 10
same,number of reverse mutation colonies per dish (x ± s),"[2]; TA100, −S9, 2500 μg/dish",193 ± 25
same,number of reverse mutation colonies per dish (x ± s),"[2]; TA100, −S9, 5000 μg/dish",206 ± 25
